Measurements: patent publication US10100030B2 (Kissei Pharmaceutical Co., Ltd., priority 2013, dated 2018)
Read-outs that look alike come from different tables or passages of the source.

Experiments:
CYP3A4 = CYP3A4 (Homo sapiens (Human), UniProt P08684)
Method: Enzyme reaction was performed by incubating in a potassium phosphate buffer solution (pH 7.4) containing 1 nM to 20 μM test compound, 3.2 mM magnesium chloride, 0.2 pmol human CYP3A4 (BD Biosciences), 0.5 mM reduced nicotinamide adenine dinucleotide phosphate (NADPH) and 3 μM Luciferin-IPA (Promega) at 37° C. for 10 minutes. The volume of the reaction solution was 50 μL/well. The 30-minute pre-incubation group was incubated at 37° C. for 30 minutes before adding the substrate, the Luciferin-IPA solution (12.5 μL/well). At the end of the enzyme reaction, 50 μL/well of a Luciferin detection reagent (Promega) was added to the wells, and the plate was left at room temperature for 20 minutes. Then, the emission intensities were measured with Infinite M1000 (TECAN). The enzyme activities (%) relative to the value of the group to which the test compound was not added were calculated.

human NK1 receptor [1] = target: T1, human NK1 receptor (Homo sapiens (Human), UniProt P25103); test: Affinity for human NK1 receptor (125I-substance P receptor binding test); settings: membrane fraction of human NK1 receptor-expressing 293T cells; read-out: IC50 (concentration required for 50% inhibition of 125I-substance P binding)
T1 sequence (P25103 whole entry): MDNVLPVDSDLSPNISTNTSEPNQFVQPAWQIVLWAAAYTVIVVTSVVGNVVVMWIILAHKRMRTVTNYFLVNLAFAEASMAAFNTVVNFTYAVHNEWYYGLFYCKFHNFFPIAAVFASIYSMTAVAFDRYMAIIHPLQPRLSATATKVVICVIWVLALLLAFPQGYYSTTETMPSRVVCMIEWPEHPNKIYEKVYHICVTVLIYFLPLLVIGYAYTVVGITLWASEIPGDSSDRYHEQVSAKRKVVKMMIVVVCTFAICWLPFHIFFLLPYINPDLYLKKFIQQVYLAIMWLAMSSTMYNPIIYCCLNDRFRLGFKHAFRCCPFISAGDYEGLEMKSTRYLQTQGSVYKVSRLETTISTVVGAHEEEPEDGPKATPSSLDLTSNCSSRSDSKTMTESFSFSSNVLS
Method: Affinity for Human NK1 Receptor
(3) Measurement of Binding Affinity to Human NK1 Receptor
(3-1) Preparation of Membrane Fraction from Human NK1 Receptor-expressing Cells
Human NK1 receptor-expressing cells were prepared in a 175 cm^2 culture flask (Nippon Becton Dickinson). The formation of a complex of the human NK1 receptor expression plasmid and Lipofectamine 2000 was performed by calculating the culture area ratio and increasing the scale of the method described in the above 2-4 by the ratio. The human NK1 receptor-expressing cells were collected in a buffer solution for the membrane fraction preparation (50 mM Tris (Wako Pure Chemical). 120 mM sodium chloride (Wako Pure Chemical Industries), 5 mM potassium chloride (Wako Pure Chemical Industries), 1 mM ethylenediaminetetraacetic acid (Sigma), 0.002 mg/mL chymostatin (Peptide Institute), 0.04 mg/ bacitracin (Wako Pure Chemical Industries), 0.005 mg/mL phosphoramidon (Peptide Institute) and 0.5 mM phenylmethylsulfonyl fluoride (Wako Pure Chemical Industries), pH7.4) and centrifuged at 1,880 g for 10 minutes, and the cell sediment was suspended in the buffer solution for the membrane fraction preparation. After freezing and thawing the cells once, the cells were homogenized using a Dounce-type homogenizer (cooled on ice, 1000 rpm, 20 times). The homogenized cell suspension was centrifuged at 20,000 rpm for 10 minutes, and the supernatant was removed to obtain cell sediment. The cell sediment was suspended again in the buffer solution for the membrane fraction preparation and homogenized using a Dounce-type homogenizer (cooled on ice, 1000 rpm, 30 times). The cell suspension was centrifuged at 20,000 rpm for 10 minutes, and the supernatant was removed to obtain cell sediment. The same homogenization and centrifugation were repeated again, and final cell sediment was obtained. The final cell sediment was suspended in a buffer solution for the receptor binding test (50 mM Tris (Wako Pure Chemical Industries), 3 mM manganese chloride (Wako Pure Chemical Industries), 0.002 mg/mL chymostatin (Peptide Institute), 0.04 mg/bacitracin (Wako Pure Chemical Industries) and 0.02% bovine serum albumin (Sigma), pH 7.4), and the protein concentration was measured using BCA Protein Assay Kit (Pierce).
(3-2) Receptor Binding Test
The buffer solution for the receptor binding test was dispensed to the wells of a 96-well assay plate (Greiner) at 22.5 μL/well. DMSO solutions of a test compound, which were prepared at an 80-time higher concentration using 100% dimethyl sulfoxide (DMSO), were added to the wells at 2.5 μL/well (final concentrations of 1 nM to 100 nM), and the solutions were mixed. As a radiolabeled ligand, ^125I-substance P (Substance P, [^125I]Tyr^8-, PerkinElmer) was used. ^125I-substance P was diluted with the buffer solution for the receptor binding test to a concentration resulting in […] and added to the 96-well assay plate, and the solutions were mixed. The membrane fraction prepared from the human NK1 receptor-expressing cells was diluted with the buffer solution for the receptor binding test to a concentration resulting in 8 to 10 μg/well, suspended until the suspension became in such a homogenous state that the suspension could flow through as 27G injection needle smoothly and then added to the 96-well assay plate at 150 μL/well. Then, the plate was incubated at room temperature for 60 minutes while shaking the plate. The reaction solutions were suction-filtered. through a multiscreen 96-well filter plate (Millipore) which had been pre-treated with 0.3% polyethyleneimine, and the reaction was terminated by washing with a washing solution (50 mM Tris and 0.02% bovine serum albumin, pH 7.4) four times. The bottom of the microplate was dried at 60° C., and then 100 μL/well of MicroScint 20 (PerkinElmer) was dispensed to the wells. The top of the plate was sealed with TopSeal A (PerkinElmer), and the plate was shaken for 5 to 10 minutes. […]

human NK1 receptor [2] = target: T1, human NK1 receptor; test: Inhibitory effect on human NK1 receptor (substance P-induced increase in intracellular calcium concentration); assay type: cell-based; settings: HEK-293T; substance P 1 μM, compound 0.1 μM; human NK1 receptor-expressing 293T cells; read-out: SPRR (Substance P-Response Remaining)
Method: Inhibitory Effect on Human NK1 Receptor
(1) Preparation of Human NK1 Receptor-expressing Cells
Human NK1 receptor-expressing cells were prepared by the same methods as those described in 2-3 and 2-4 of Test Example 1.
(2) Study on Inhibitory Effect on Increase in Intracellular Calcium Concentration
The human NK1 receptor-expressing cells were washed with 300 μL/well of a washing solution (20 mM HEPES/Hank's Balanced Salt Solution (HBSS) […]). A fluorescent calcium indicator (Fluo-4 Direct Calcium Assay Kit, Life Technologies, containing 0.42 mM probenecid and 0.1% bovine serum albumin, prepared according to the protocol of the product) was added to the wells at 150 μL/well, and the plate was incubated at 37° C. for 30 minutes in an incubator. Then, DMSO solutions of a test compound, which were prepared at an 80-time higher concentration using 100% dimethyl sulfoxide (DMSO), were added to the wells at 2.5 μL/well (final concentrations of 0.1, 1 and 10 μM), and the solutions were mixed. Then, the plate was further incubated at 37° C. for 30 minutes in an incubator. After 30 minutes, the intracellular calcium concentrations were measured immediately.
The intracellular calcium concentrations were each measured as a fluorescent signal using FDSS (registered trademark) 7000 (Hamamatsu Photonics). A substance P (Peptide Institute, Inc.) solution which was prepared at 0.4 μM or 4 μM using an assay buffer (20 mM HEPES/Hank's Balanced Salt Solution (HBSS) pH 7.3, containing 0.1% bovine serum albumin) was added automatically to each well at 50 μL/well (final concentration of 0.1 or 1 μM) 10 seconds after starting reading, and the fluorescent signal was measured up to 120 seconds.
The intracellular calcium concentration (%) of the cells to which a test compound was added was calculated by the equation below, where the fluorescent signal of the group to which the vehicle (DMSO) was added was regarded as 100%, and the fluorescent signal before the addition of substance P was regarded as 0%. Intracellular calcium concentration(%)=(Fluorescent signal of test compound addition group)/(Fluorescent signal of vehicle addition group)×100
The intracellular calcium concentration (%) calculated was regarded as the remaining agonist activity of substance P (Substance P-Response Remaining: SPRR). In the table, Ex. No. means the Example number. SPRR (%) is the value obtained when the concentration of substance P was 1 μM and the concentration of the compound was 0.1 μM.

NK1 receptor = NK1 receptor (Meriones unguiculatus (Mongolian jird) (Gerbillus unguiculatus), UniProt Q5DUB1); test: Effect on GR73632-induced foot-tapping; assay type: in vivo; settings: 0.3 mg/kg from the jugular vein, GR73632 after four hours, male gerbil
Sequence of NK1 receptor (Q5DUB1 whole entry): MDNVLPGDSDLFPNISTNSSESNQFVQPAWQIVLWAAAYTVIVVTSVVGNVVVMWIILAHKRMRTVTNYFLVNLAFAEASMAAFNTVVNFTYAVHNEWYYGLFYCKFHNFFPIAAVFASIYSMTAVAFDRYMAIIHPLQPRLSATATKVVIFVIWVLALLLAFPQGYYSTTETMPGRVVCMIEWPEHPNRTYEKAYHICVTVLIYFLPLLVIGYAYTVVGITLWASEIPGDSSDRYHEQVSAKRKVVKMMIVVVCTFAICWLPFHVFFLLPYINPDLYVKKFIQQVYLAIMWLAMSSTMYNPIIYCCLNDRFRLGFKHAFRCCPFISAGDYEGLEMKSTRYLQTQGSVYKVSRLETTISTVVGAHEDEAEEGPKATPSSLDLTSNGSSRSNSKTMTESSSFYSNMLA
Method: (1) Effect on Foot-tapping
(§1) A male gerbil (Japan SLC) was anesthetized with isoflurane, and 0.3 mg/kg of a test compound was administered from the jugular vein. After four hours, GR73632 (5 pmol/5 μl), which is an NK1 receptor agonist, was administered into the cerebral ventricle at the part 1 mm lateral to and 4.5 mm below the bregma in the head, under anesthesia with isoflurane. After the administration, the gerbil was moved to an observation cage, and the foot-tapping period during five minutes after the recovery of the righting reflex was measured. The foot-tapping inhibition rate (%) of each test compound was calculated by the following equation. Foot-tapping inhibition rate (%)={1−(Foot-tapping period when test compound was administered)/(Foot-tapping period when solvent was administered)}×100 (2) Measurement of Drug Concentrations
(§2) In the table, Ex. No. means the Example number. Inhibition (%) is the foot-tapping inhibition rate, and Conc. (nM) is the drug concentration in the brain.

[3] = Measurement of drug concentrations in the brain after foot-tapping test; assay type: in vivo; settings: male; 0.3 mg/kg iv, after foot-tapping was finished, gerbil brain; read-out: Conc. (drug concentration in the brain)
Method: as §1
After foot-tapping was finished, laparotomy was performed immediately under anesthesia with ether, and a blood sample was taken from the abdominal vena cava. At the same time, the brain was extracted. Through a quantitative analysis using liquid chromatography-mass spectrometry (LC/MS), the concentrations of the test compound in the plasma and the brain were measured.
as §2

Sequence of CYP3A4 (P08684 whole entry): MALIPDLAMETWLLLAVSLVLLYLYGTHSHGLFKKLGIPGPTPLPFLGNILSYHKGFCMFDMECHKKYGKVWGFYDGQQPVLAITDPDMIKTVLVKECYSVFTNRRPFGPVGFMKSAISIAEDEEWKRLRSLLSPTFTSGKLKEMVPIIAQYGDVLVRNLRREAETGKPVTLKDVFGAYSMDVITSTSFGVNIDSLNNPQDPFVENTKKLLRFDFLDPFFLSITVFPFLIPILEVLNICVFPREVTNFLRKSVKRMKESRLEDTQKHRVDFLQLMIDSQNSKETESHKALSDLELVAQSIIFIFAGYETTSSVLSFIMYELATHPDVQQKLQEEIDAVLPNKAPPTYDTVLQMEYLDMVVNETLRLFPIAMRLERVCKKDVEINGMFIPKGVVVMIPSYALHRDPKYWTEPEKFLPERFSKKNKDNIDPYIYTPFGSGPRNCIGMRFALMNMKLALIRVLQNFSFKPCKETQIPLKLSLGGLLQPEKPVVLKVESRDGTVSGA

SMILES: Cc1cc(F)ccc1-c1cc(N2CCC(C(C)C(=O)O)CC2)nc(C#N)c1N(C)C(=O)C(C)(C)c1cc(C(F)(F)F)cc(C(F)(F)F)c1 (stereo not shown) [Example 8]
- IC50 (CYP3A4; human, 10 min, pH 7.4): 1400 nM
- IC50 (human NK1 receptor [1]): 2.25 nM
- remaining activity at 0.1 µM (human NK1 receptor [2]): 69%
- Inhibition (foot-tapping inhibition rate) (NK1 receptor): 100%
- concentration at 4 h [3]: 213 nM

SMILES: Cc1cc(F)ccc1-c1cc(N2CCC([C@@H](C)C(=O)O)CC2)ncc1N(C)C(=O)C(C)(C)c1cc(C(F)(F)F)cc(C(F)(F)F)c1 [Example 12, (R)-2-[5′-{[2-(3,5-Bistrifluoromethylphenyl)-2-methylpropionyl]methylaminol}-4′-(4-fluoro-2-methylphenyl)-3,4,5,6-tetrahydro-2H-[1,2]bipyridinyl-4-yl]propionic acid]
- IC50 (CYP3A4): 4600 nM
- IC50 (human NK1 receptor [1]): 7.44 nM
